Source: US20150231134A1, “Combination Therapy using Belinostat and Trabectedin” (Onxeo DK, Branch of Onxeo S.A., France, priority 2012, published 2015)
Read-outs that look alike come from different tables or passages of the source.

Columns and labels:
[1] = system: Ovarian Cancer Cells (A2780); experiment: Clonogenic assay (continuous co-incubation), ovarian cancer cells A2780; assay type: cell-based
Experimental: (§1) The effects of the combination of belinostat and trabectedin were studied in clonogenic assays. The clonogenic assay assesses anti-clonogenic activity of tumour cells. The “target” in clonogenic assay is all biochemical and molecular elements or alterations characteristic of tumour cells rather than specific single targets.
(§2) Cells were grown for at least 1 week after thawing in standard media to obtain a sub-confluent culture. The 3.3% agar was boiled for at least 60 minutes in a water bath on an electrical heating plate (30 mL PBS+990 mg Bacto agar). The 90 mL growth medium (RPMI-1640+10% FCS) was heated in a water bath at 37° C. Cells were centrifuged in 50 mL centrifuge tubes at 1200 rpm for 5 minutes at room temperature.
(§3) Drug (belinostat or trabectedin) was dissolved and diluted with growth medium or DMSO to a concentration of […] the final concentration.
(§4) Cells were suspended in 7 mL growth medium using a 1 mL syringe and an 18 gauge needle by pumping the solution up and down 15 times. Cells were stained with Nigrosin (0.3 mL cells+0.3 mL 0.1% Nigrosin in PBS), and counted after 8 minutes using a Fuchs-Rosenthal counting chamber.
(§5) Then, 10 mL agar and 90 mL growth medium was mixed (0.33%) and heated in a water bath at 37° C. 0.35 mL cell suspension was transferred to 10 mL conical centrifuge tubes using a dispenser. 35 μL drug (belinostat or trabectedin) was added. 3.15 mL agar/medium was added to each tube (maximum 8 tubes at the time).
(§6) For each belinostat combination tested series of 7 titrations corresponding to approximately 30, 40, 50, 60, 70, 80, 90% inhibition was tested as mono-therapy and in combination.
(§7) The Combination Index (CI) provides a measure of the interaction: A CI value of less than 1 indicates synergy, a CI value of 1 indicates an additive effect, and a CI value of greater than 1 indicates antagonism.

Sarcoma Cells (MesSa) = experiment: Clonogenic assay (continuous co-incubation), sarcoma cells MesSa; assay type: cell-based, human
Experimental: as §1, §2, §3, §4, §5, §6, §7

[2] = system: Osteocarcinoma Cells (Saos-2); experiment: Clonogenic assay (continuous co-incubation), osteocarcinoma cells Saos-2; assay type: cell-based
Experimental: as §1, §2, §3, §4, §5, §6, §7

[3] = system: MesSa human sarcoma xenograft; assay type: in vivo
Experimental: The xenograft model used the MesSa cell line (ATCC: CRL-1976 human sarcoma cells) (in vitro cell passage number 67 from frozen stock (number 65) on day 5). Tumour cells (1×10^7) (trypsinated) (100 μL in 100 μL matrigel) were injected subcutaneously (s.c.) into the right flank of each mouse, with one node per mouse. The time from cell dilution to the end of injection was 24 minutes. Each mouse was anaesthetised with Hypnorm/Dormicum subcutaneously (s.c.) or isofluran (by inhalation) when the tumour cells were injected.
Four groups, each of 12 mice, were treated with vehicle, belinostat only, trabectedin only, or both belinostat and trabectedin, for three weeks, as summarised in the following table. On days that belinostat was administered, it was administered twice, with a 3 hour interval. On days that both belinostat and trabectedin were administered, the trabectedin was administered between the two belinostat administrations.
Mice were enrolled in treatment groups following confirmation of xenograft take. Both tumour diameter and body weight were measured on days: 0, 3, 7, 10, 14, 17, and 21. Animals were sacrificed (by cervical dislocation) on day 21. Tumour weight was measured on day 21 (following sacrifice).
“T/C%” denotes tumour weight following treatment as a percent of control, using Mann-Whitney statistical analysis. The results (median tumour volume) are also illustrated in FIG. 4.
“T/C%” denotes tumour weight following treatment as a percent of control, using Mann-Whitney statistical analysis. The results (median tumour weight) are also illustrated in FIG. 5.

[4] = physiological pH; cited from earlier work
soft-tissue sarcoma = conditions: patients with soft-tissue sarcoma, pivotal clinical trial; cited from earlier work
[5] = day 0, belinostat 40 mg/kg i.p. twice daily, days 0-4, 7-11, 14-18
[6] = day 4, belinostat 40 mg/kg i.p. twice daily, days 0-4, 7-11, 14-18
[7] = day 7, belinostat 40 mg/kg i.p. twice daily, days 0-4, 7-11, 14-18
[8] = day 10, belinostat 40 mg/kg i.p. twice daily, days 0-4, 7-11, 14-18
[9] = day 14, belinostat 40 mg/kg i.p. twice daily, days 0-4, 7-11, 14-18
[10] = day 17, belinostat 40 mg/kg i.p. twice daily, days 0-4, 7-11, 14-18
[11] = day 0, trabectedin 0.1 mg/kg i.v. once, days 0, 3, 7, 10
[12] = day 4, trabectedin 0.1 mg/kg i.v. once, days 0, 3, 7, 10
[13] = day 7, trabectedin 0.1 mg/kg i.v. once, days 0, 3, 7, 10
[14] = day 10, trabectedin 0.1 mg/kg i.v. once, days 0, 3, 7, 10
[15] = day 14, trabectedin 0.1 mg/kg i.v. once, days 0, 3, 7, 10
[16] = day 17, trabectedin 0.1 mg/kg i.v. once, days 0, 3, 7, 10

O=C(/C=C/c1cccc(S(=O)(=O)Nc2ccccc2)c1)NO [Belinostat, (E)-N-hydroxy-3-(3-phenylsulfamoyl-phenyl)-acrylamide]
Belinostat Alone (% survival) ([1]; belinostat 0.04 μM): 97.74%
Belinostat Alone (% survival) ([1]; belinostat 0.36 μM): 82.64%
Belinostat Alone (% survival) ([1]; belinostat 0.47 μM): 65.30%
Belinostat Alone (% survival) ([1]; belinostat 0.56 μM): 31.60%
Belinostat Alone (% survival) ([1]; belinostat 0.63 μM): 15.82%
Belinostat Alone (% survival) ([1]; belinostat 0.68 μM): 7.19%
Belinostat Alone (% survival) ([1]; belinostat 0.73 μM): 2.42%
Belinostat Alone (% survival) (Sarcoma Cells (MesSa); belinostat 0.27 μM): 88.48%
Belinostat Alone (% survival) (Sarcoma Cells (MesSa); belinostat 0.37 μM): 68.82%
Belinostat Alone (% survival) (Sarcoma Cells (MesSa); belinostat 0.48 μM): 57.06%
Belinostat Alone (% survival) (Sarcoma Cells (MesSa); belinostat 0.57 μM): 42.92%
Belinostat Alone (% survival) (Sarcoma Cells (MesSa); belinostat 0.66 μM): 37.33%
Belinostat Alone (% survival) (Sarcoma Cells (MesSa); belinostat 0.80 μM): 17.90%
Belinostat Alone (% survival) (Sarcoma Cells (MesSa); belinostat 1.0 μM): 2.75%
Belinostat Alone (% survival) ([2]; belinostat 0.065 μM): 86.96%
Belinostat Alone (% survival) ([2]; belinostat 0.10 μM): 66.47%
Belinostat Alone (% survival) ([2]; belinostat 0.115 μM): 69.29%
Belinostat Alone (% survival) ([2]; belinostat 0.13 μM): 74.52%
Belinostat Alone (% survival) ([2]; belinostat 0.145 μM): 45.50%
Belinostat Alone (% survival) ([2]; belinostat 0.19 μM): 38.34%
Belinostat Alone (% survival) ([2]; belinostat 0.225 μM): 30.59%
tumour growth delay (in words) ([3]; belinostat 40 mg/kg, twice daily, i.p., 5 days per week for 3 weeks): some but not significant tumour growth delay
Median Tumour Volume, Belinostat Only [3, 5]: 65 mm^3
T/C % (tumour volume), Belinostat Only [3, 5]: 75%
Median Tumour Volume, Belinostat Only [3, 6]: 71 mm^3
T/C % (tumour volume), Belinostat Only [3, 6]: 81%
Median Tumour Volume, Belinostat Only [3, 7]: 76 mm^3
T/C % (tumour volume), Belinostat Only [3, 7]: 67%
Median Tumour Volume, Belinostat Only [3, 8]: 87 mm^3
T/C % (tumour volume), Belinostat Only [3, 8]: 39%
Median Tumour Volume, Belinostat Only [3, 9]: 144 mm^3
T/C % (tumour volume), Belinostat Only [3, 9]: 59%
Median Tumour Volume, Belinostat Only [3, 10]: 295 mm^3
T/C % (tumour volume), Belinostat Only [3, 10]: 66%
Median Tumour Volume, Belinostat Only ([3]; day 21, belinostat 40 mg/kg i.p. twice daily, days 0-4, 7-11, 14-18): 449 mm^3
T/C % (tumour volume), Belinostat Only ([3]; day 21, belinostat 40 mg/kg i.p. twice daily, days 0-4, 7-11, 14-18, p=0.10): 67%
T/C % (tumour weight), Belinostat Alone ([3]; day 21, belinostat 40 mg/kg i.p. twice daily, days 0-4, 7-11, 14-18, p=0.180): 77%
reduction in growth (tumour volume) ([3]; day 21, belinostat 40 mg/kg, twice daily, i.p., 5 days per week for 3 weeks, p=0.10): 33%
reduction in growth (tumour weight) ([3]; day 21, belinostat 40 mg/kg, twice daily, i.p., 5 days per week for 3 weeks, p=0.180): 23%
solubility in water [4]: sparingly soluble

COc1cc2c(cc1O)CCN[C@]21CS[C@@H]2c3c(OC(C)=O)c(C)c4c(c3[C@H](COC1=O)N1[C@@H]2[C@H]2c3c(cc(C)c(OC)c3O)C[C@@H]([C@@H]1O)N2C)OCO4 (relative stereo) [Trabectedin, spiro[6,16-(epithiopropanoxymethano)-7,13-imino-12H-1,3-dioxolo[7,8]isoquino[3,2-b][3]benzazocine-20,1′(2′H)-isoquinolin]-19-one, 5-(acetyloxy)-3′,4′,6,6a,7,13,14,16-octahydro-6′,8,14-trihydroxy-7′,9-dimethoxy-4,10,23-trimethyl-, [6R-(6α,6aβ,7β,13β,14β,16α,20R*)]]
Trabectedin Alone (% survival) ([1]; trabectedin 0.66 nM): 75.33%
Trabectedin Alone (% survival) ([1]; trabectedin 0.73 nM): 62.12%
Trabectedin Alone (% survival) ([1]; trabectedin 0.80 nM): 49.62%
Trabectedin Alone (% survival) ([1]; trabectedin 0.84 nM): 44.20%
Trabectedin Alone (% survival) ([1]; trabectedin 0.88 nM): 44.06%
Trabectedin Alone (% survival) ([1]; trabectedin 0.92 nM): 36.20%
Trabectedin Alone (% survival) ([1]; trabectedin 0.96 nM): 28.69%
Trabectedin Alone (% survival) (Sarcoma Cells (MesSa); trabectedin 0.20 nM): 86.17%
Trabectedin Alone (% survival) (Sarcoma Cells (MesSa); trabectedin 0.46 nM): 87.51%
Trabectedin Alone (% survival) (Sarcoma Cells (MesSa); trabectedin 0.64 nM): 81.84%
Trabectedin Alone (% survival) (Sarcoma Cells (MesSa); trabectedin 0.75 nM): 67.10%
Trabectedin Alone (% survival) (Sarcoma Cells (MesSa); trabectedin 0.86 nM): 42.38%
Trabectedin Alone (% survival) (Sarcoma Cells (MesSa); trabectedin 0.97 nM): 33.98%
Trabectedin Alone (% survival) (Sarcoma Cells (MesSa); trabectedin 1.1 nM): 26.55%
Trabectedin Alone (% survival) ([2]; trabectedin 0.005 nM): 79.99%
Trabectedin Alone (% survival) ([2]; trabectedin 0.010 nM): 77.74%
Trabectedin Alone (% survival) ([2]; trabectedin 0.09 nM): 74.94%
Trabectedin Alone (% survival) ([2]; trabectedin 0.13 nM): 69.14%
Trabectedin Alone (% survival) ([2]; trabectedin 0.17 nM): 60.61%
Trabectedin Alone (% survival) ([2]; trabectedin 0.21 nM): 65.08%
Trabectedin Alone (% survival) ([2]; trabectedin 0.26 nM): 49.99%
Median Tumour Volume, Trabectedin Only [3, 11]: 87 mm^3
T/C % (tumour volume), Trabectedin Only [3, 11]: 100%
Median Tumour Volume, Trabectedin Only [3, 12]: 87 mm^3
T/C % (tumour volume), Trabectedin Only [3, 12]: 100%
Median Tumour Volume, Trabectedin Only [3, 13]: 57 mm^3
T/C % (tumour volume), Trabectedin Only [3, 13]: 50%
Median Tumour Volume, Trabectedin Only [3, 14]: 65 mm^3
T/C % (tumour volume), Trabectedin Only [3, 14]: 29%
Median Tumour Volume, Trabectedin Only [3, 15]: 76 mm^3
T/C % (tumour volume), Trabectedin Only [3, 15]: 31%
Median Tumour Volume, Trabectedin Only [3, 16]: 134 mm^3
T/C % (tumour volume), Trabectedin Only [3, 16]: 30%
Median Tumour Volume, Trabectedin Only ([3]; day 21, trabectedin 0.1 mg/kg i.v. once, days 0, 3, 7, 10): 167 mm^3
T/C % (tumour volume), Trabectedin Only ([3]; day 21, trabectedin 0.1 mg/kg i.v. once, days 0, 3, 7, 10, p=0.01): 25%
T/C % (tumour weight), Trabectedin Alone ([3]; day 21, trabectedin 0.1 mg/kg i.v. once, days 0, 3, 7, 10, p=0.027): 30%
reduction in growth (tumour volume) ([3]; day 21, trabectedin 0.1 mg/kg, once daily, i.v., days 0, 3, 7, 10, p=0.01): 75%
reduction in growth (tumour weight) ([3]; day 21, trabectedin 0.1 mg/kg, once daily, i.v., days 0, 3, 7, 10, p=0.027): 70%
tumour growth delay (in words) ([3]; trabectedin 0.1 mg/kg, once daily, i.v., days 0, 3, 7, 10 of a 3 week cycle): significant tumour growth delay
time-to-tumour-progression (TTP) (soft-tissue sarcoma): 3.9 months
